# Experimental data from patent US9617240B2 (TEIJIN PHARMA LIMITED, priority 2013, dated 2017).
# System: level of uric acid in the plasma
# Assay: Hypouricemic effect in beagle dogs
# Format: in vivo
# Conditions: oral gavage, 3 mg/kg, 24 hours after administration
# Protocol: The hypouricemic effect of the compound (I) in beagle dogs was confirmed. A test compound suspended in a 0.5% methyl cellulose solution was orally administered by gavage to beagle dogs (Kitayama Labes). Blood was drawn from the cephalic vein at 24 hours after administration and plasma was separated. The level of uric acid in the plasma sample was measured using an LC-MS/MS method and the percentage of hypouricemic effect was determined by the following expression: Percentage of hypouricemic effect (%)=(Level of uric acid of the control animal−Level of uric acid of the test compound-administered animal)×100/Level of uric acid of the control animal.
row,Structure (SMILES),Percentage of hypouricemic effect [%]
1,"N#Cc1cc(-n2cc(C(=O)O)cn2)ncc1-c1ccccc1 [Compound 1, 1-(4-cyano-5-phenylpyridin-2-yl)-1H-pyrazole-4-carboxylic acid]",≥ 50

# System: level of uric acid in the blood
# Assay: Hypouricemic effect in normal rats
# Format: in vivo, Sprague-Dawley male rats
# Conditions: oral gavage, 1 mg/kg, 6 hours after administration
# Protocol: A test compound suspended in a 0.5% methylcellulose solution was administered to 8 to 9 week-old Sprague-Dawley male rats (Japan Charles River Co.) by oral gavage administration using a feeding needle. After the blood was collected from the tail vein at 6 hours and 24 hours after administration, the plasma was separated. The level of uric acid in the blood sample was measured by uricase method using an absorption spectrometer as well as a uric acid determination kit (L type Wako UA F: Wako Pure Chemical Industries, Ltd.). The percentage of hypouricemic effect was determined by the following expression: Percentage of hypouricemic effect (%)=(Level of uric acid of the control animal−Level of uric acid of the test compound-administered animal)×100/Level of uric acid of the control animal.
row,Structure (SMILES),Percentage of hypouricemic effect [%]
1,"N#Cc1cc(-n2cc(C(=O)O)cn2)ncc1-c1ccccc1 [Compound 1, 1-(4-cyano-5-phenylpyridin-2-yl)-1H-pyrazole-4-carboxylic acid]",≥ 70

# Same assay, conditions: oral gavage, 1 mg/kg, 24 hours after administration
row,Structure (SMILES),Percentage of hypouricemic effect [%]
1,"N#Cc1cc(-n2cc(C(=O)O)cn2)ncc1-c1ccccc1 [Compound 1, 1-(4-cyano-5-phenylpyridin-2-yl)-1H-pyrazole-4-carboxylic acid]",≥ 70

# System: level of uric acid in the blood
# Assay: Hypouricemic effect in Cebus apella monkeys
# Format: in vivo
# Conditions: gavage, 1 mg/kg, 4 hours after administration
# Protocol: To Cebus apella monkeys, test compounds suspended in 0.5% methylcellulose solution were administered by gavage into the stomach through the nasal cavity using a disposable catheter and a syringe. Blood was taken from the saphenous vein at 4 hours and 24 hours after the administration, after which the plasma was separated. The level of uric acid in the blood was measured using a uric acid measurement kit (L type Wako UA F: Wako Pure Chemical Industries, Ltd.) by the uricase method using an absorption spectrometer and the percentage of hypouricemic effect was determined by the following expression: Percentage of hypouricemic effect (%)=(Level of uric acid of the control animal−Level of uric acid of the test compound-administered animal)×100/Level of uric acid of the control animal.
row,Structure (SMILES),Percentage of hypouricemic effect [%]
1,"N#Cc1cc(-n2cc(C(=O)O)cn2)ncc1-c1ccccc1 [Compound 1, 1-(4-cyano-5-phenylpyridin-2-yl)-1H-pyrazole-4-carboxylic acid]",≥ 50

# Same assay, conditions: gavage, 1 mg/kg, 24 hours after administration
row,Structure (SMILES),Percentage of hypouricemic effect [%]
1,"N#Cc1cc(-n2cc(C(=O)O)cn2)ncc1-c1ccccc1 [Compound 1, 1-(4-cyano-5-phenylpyridin-2-yl)-1H-pyrazole-4-carboxylic acid]",≥ 50

# Target: T1, oxidase type xanthine oxidase (derived from buttermilk) (Bos taurus, UniProt P80457)
# T1 construct: oxidase type xanthine oxidase (derived from buttermilk, supplied by Calbiochem Novabiochem Corp.); purchased Calbiochem Novabiochem Corp; host or cells: buttermilk (natural source)
# Assay: Xanthine oxidase inhibitory activity (absorbance change at 290 nm)
# Format: biochemical
# Conditions: xanthine substrate, 100 mM phosphate buffer, absorbance at 290 nm for 5 minutes; read-out: Inhibitory Activity (50% inhibitory concentration with respect to oxidase type xanthine oxidase)
# Protocol: The xanthine oxidase inhibitory activity was measured for the compounds synthesized according to the above Examples.
# After a test compound was dissolved in DMSO (manufactured by Sigma Co.) so that the concentration is 20 mM, the test compound was prepared and used at a desired concentration at the time of use.
# The evaluation of the xanthine oxidase inhibitory activity of the compounds of the present invention was conducted by partially modifying the method described in the literature (Method Enzymatic Analysis, 1, 521-522, 1974). The present evaluation is based on the oxidase type xanthine oxidase inhibitory activity evaluation. That is, a xanthine (manufactured by Sigma Co.) solution prepared at 10 mM in advance using a 20 mM sodium hydroxide solution was adjusted to 30 μM using a 100 mM phosphate buffer solution, and 75 μL/well of each solution was added into a 96-well plate. Aliquots (1.5 μL/well) of each test sample, which was diluted with DMSO so that the concentration is 100 times the final concentration, were added into a 96-well plate, and after mixing, the absorbance at 290 nm was measured by a microplate reader SPECTRA MAX Plus 384 (manufactured by Molecular Devices, LLC). Subsequently, oxidase type xanthine oxidase (derived from buttermilk, supplied by Calbiochem Novabiochem Corp.) was prepared at 30.6 mU/mL using a 100 mM phosphate buffer solution and 73.5 μL/well of each solution was added. Immediately after mixing, the change in absorbance at 290 nm was measured for 5 minutes. The enzyme activity when DMSO was used instead of a test compound solution was defined as 100%, the inhibitory rate of the test compounds was calculated and the 50% inhibitory concentration with respect to oxidase type xanthine oxidase was calculated by fitting to the dose-response curve.
# Note that the symbols (+, ++, +++) in the table represent inhibitory activity values as shown below.
# T1 sequence (P80457 whole entry): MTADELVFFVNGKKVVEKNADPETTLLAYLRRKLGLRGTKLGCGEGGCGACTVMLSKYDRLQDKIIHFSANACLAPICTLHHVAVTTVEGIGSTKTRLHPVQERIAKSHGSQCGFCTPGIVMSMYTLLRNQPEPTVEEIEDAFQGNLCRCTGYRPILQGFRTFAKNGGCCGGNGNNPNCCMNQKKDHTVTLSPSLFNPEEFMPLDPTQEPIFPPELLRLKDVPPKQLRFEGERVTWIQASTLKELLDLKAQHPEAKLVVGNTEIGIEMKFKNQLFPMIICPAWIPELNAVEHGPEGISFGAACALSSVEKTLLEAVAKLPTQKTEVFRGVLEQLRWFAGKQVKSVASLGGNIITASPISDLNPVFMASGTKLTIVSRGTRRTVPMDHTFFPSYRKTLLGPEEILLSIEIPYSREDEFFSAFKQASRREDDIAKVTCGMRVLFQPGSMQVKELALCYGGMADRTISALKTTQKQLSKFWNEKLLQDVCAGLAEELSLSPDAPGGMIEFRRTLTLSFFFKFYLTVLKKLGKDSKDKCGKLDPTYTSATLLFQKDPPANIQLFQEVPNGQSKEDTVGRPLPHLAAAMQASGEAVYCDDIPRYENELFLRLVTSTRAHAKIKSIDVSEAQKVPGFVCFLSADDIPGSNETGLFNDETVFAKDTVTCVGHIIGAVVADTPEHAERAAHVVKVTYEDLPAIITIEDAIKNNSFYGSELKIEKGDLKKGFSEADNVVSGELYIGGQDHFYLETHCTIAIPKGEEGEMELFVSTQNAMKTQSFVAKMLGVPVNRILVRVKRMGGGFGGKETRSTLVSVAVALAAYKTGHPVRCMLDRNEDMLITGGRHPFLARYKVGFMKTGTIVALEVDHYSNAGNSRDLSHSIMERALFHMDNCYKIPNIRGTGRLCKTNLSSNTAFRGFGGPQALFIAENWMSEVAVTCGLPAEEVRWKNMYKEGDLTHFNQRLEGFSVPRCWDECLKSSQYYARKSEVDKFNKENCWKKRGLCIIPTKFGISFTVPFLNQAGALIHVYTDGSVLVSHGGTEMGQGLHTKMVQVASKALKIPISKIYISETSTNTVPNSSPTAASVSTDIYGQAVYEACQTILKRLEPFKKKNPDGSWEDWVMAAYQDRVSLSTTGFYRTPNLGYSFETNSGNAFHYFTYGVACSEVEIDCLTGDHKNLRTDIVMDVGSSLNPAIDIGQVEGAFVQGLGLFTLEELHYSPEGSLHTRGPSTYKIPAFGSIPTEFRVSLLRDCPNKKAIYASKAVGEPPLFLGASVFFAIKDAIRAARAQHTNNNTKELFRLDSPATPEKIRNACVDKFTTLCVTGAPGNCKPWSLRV
row,Structure (SMILES),IC50 [nM]
1,"N#Cc1nc(-n2cc(C(=O)O)cn2)ccc1-c1ccccc1 [Compound 85, 1-(6-cyano-5-phenylpyridin-2-yl)-1H-pyrazole-4-carboxylic acid]",≥ 10
2,"N#Cc1nc(-n2cc(C(=O)O)cn2)ccc1-c1ccccc1F [Compound 86, 1-[6-cyano-5-(2-fluorophenyl)pyridin-2-yl]-1H-pyrazole-4-carboxylic acid]",5 to 10
3,"Cc1ccc(F)c(-c2ccc(-n3cc(C(=O)O)cn3)nc2C#N)c1 [Compound 88, 1-[6-cyano-5-(2-fluoro-5-methylphenyl)pyridin-2-yl]-1H-pyrazole-4-carboxylic acid]",≥ 10
4,N#Cc1nc(-n2cc(C(=O)O)cn2)ccc1-c1ccc(F)cc1 [Compound 89],≥ 10
5,"N#Cc1nc(-n2cc(C(=O)O)cn2)ccc1-c1ccc(F)cc1F [Compound 90, 1-[6-cyano-5-(2,4-difluorophenyl)pyridin-2-yl]-1H-pyrazole-4-carboxylic acid]",≥ 10
6,"COc1ccc(F)c(-c2ccc(-n3cc(C(=O)O)cn3)nc2C#N)c1 [Compound 91, 1-[6-cyano-5-(2-fluoro-5-methoxyphenyl)pyridin-2-yl]-1H-pyrazole-4-carboxylic acid]",5 to 10
7,"Cc1cccc(-c2ccc(-n3cc(C(=O)O)cn3)nc2C#N)c1 [Compound 92, 1-[6-cyano-5-(3-methylphenyl)pyridin-2-yl]-1H-pyrazole-4-carboxylic acid]",≥ 10
8,"CCOc1cccc(-c2ccc(-n3cc(C(=O)O)cn3)nc2C#N)c1 [Compound 93, 1-[6-cyano-5-(3-ethoxyphenyl)pyridin-2-yl]-1H-pyrazole-4-carboxylic acid]",≥ 10
9,"Cc1cc(-c2ccc(-n3cc(C(=O)O)cn3)nc2C#N)ccc1F [Compound 94, 1-[6-cyano-5-(4-fluoro-3-methylphenyl)pyridin-2-yl]-1H-pyrazole-4-carboxylic acid]",≥ 10
10,"N#Cc1nc(-n2cc(C(=O)O)cn2)ccc1-c1c(F)cccc1F [Compound 95, 1-[6-cyano-5-(2,6-difluorophenyl)pyridin-2-yl]-1H-pyrazole-4-carboxylic acid]",5 to 10
11,"COc1cccc(F)c1-c1ccc(-n2cc(C(=O)O)cn2)nc1C#N [Compound 96, 1-[6-cyano-5-(2-fluoro-6-methoxyphenyl)pyridin-2-yl]-1H-pyrazole-4-carboxylic acid]",≥ 10

# More lines, now with the values ahead:
row,IC50 [nM],Structure (SMILES)
1,1 to 5,"N#Cc1cc(-n2cc(C(=O)O)cn2)ncc1-c1ccccc1 [Compound 1, 1-(4-cyano-5-phenylpyridin-2-yl)-1H-pyrazole-4-carboxylic acid]"
2,5 to 10,"Cc1ccc(-c2ncc(-n3cc(C(=O)O)cn3)cc2C#N)cc1F [Compound 83, 1-[5-cyano-6-(3-fluoro-4-methylphenyl)pyridin-3-yl]-1H-pyrazole-4-carboxylic acid]"
3,5 to 10,"COc1ccc(F)c(-c2ncc(-n3cc(C(=O)O)cn3)cc2C#N)c1 [Compound 84, 1-[5-cyano-6-(2-fluoro-5-methoxyphenyl)pyridin-3-yl]-1H-pyrazole-4-carboxylic acid]"
4,1 to 5,"N#Cc1cc(-n2cc(C(=O)O)c(N)n2)ncc1-c1ccccc1 [Compound 97, 3-amino-1-(4-cyano-5-phenylpyridin-2-yl)-1H-pyrazole-4-carboxylic acid]"
5,1 to 5,"N#Cc1cc(-n2cc(C(=O)O)c(N)n2)ncc1-c1ccccc1F [Compound 98, 3-amino-1-[4-cyano-5-(2-fluorophenyl)pyridin-2-yl]-1H-pyrazole-4-carboxylic acid]"
6,1 to 5,"N#Cc1cc(-n2cc(C(=O)O)c(N)n2)ncc1-c1ccc(F)cc1 [Compound 99, 3-amino-1-[4-cyano-5-(4-fluorophenyl)pyridin-2-yl]-1H-pyrazole-4-carboxylic acid]"
7,1 to 5,"N#Cc1cc(-n2cc(C(=O)O)c(N)n2)ncc1-c1ccc(Cl)cc1 [Compound 100, 3-amino-1-[4-cyano-5-(4-chlorophenyl)pyridin-2-yl]-1H-pyrazole-4-carboxylic acid]"
8,1 to 5,"Cc1cccc(-c2cnc(-n3cc(C(=O)O)c(N)n3)cc2C#N)c1 [Compound 101, 3-amino-1-[4-cyano-5-(3-methylphenyl)pyridin-2-yl]-1H-pyrazole-4-carboxylic acid]"
9,1 to 5,"COc1cccc(-c2cnc(-n3cc(C(=O)O)c(N)n3)cc2C#N)c1 [Compound 102, 3-amino-1-[4-cyano-5-(3-methoxyphenyl)pyridin-2-yl]-1H-pyrazole-4-carboxylic acid]"
10,1 to 5,"Cc1ccc(-c2cnc(-n3cc(C(=O)O)c(N)n3)cc2C#N)c(F)c1 [Compound 103, 3-amino-1-[4-cyano-5-(2-fluoro-4-methylphenyl)pyridin-2-yl]-1H-pyrazole-4-carboxylic acid]"
11,1 to 5,"Cc1ccc(F)c(-c2cnc(-n3cc(C(=O)O)c(N)n3)cc2C#N)c1 [Compound 104, 3-amino-1-[4-cyano-5-(2-fluoro-5-methylphenyl)pyridin-2-yl]-1H-pyrazole-4-carboxylic acid]"
12,1 to 5,"N#Cc1cc(-n2cc(C(=O)O)c(N)n2)ncc1-c1ccc(F)cc1F [Compound 105, 3-amino-1-[4-cyano-5-(2,4-difluorophenyl)pyridin-2-yl]-1H-pyrazole-4-carboxylic acid]"
13,1 to 5,"Cc1cc(-c2cnc(-n3cc(C(=O)O)c(N)n3)cc2C#N)ccc1F [Compound 106, 3-amino-1-[4-cyano-5-(4-fluoro-3-methylphenyl)pyridin-2-yl]-1H-pyrazole-4-carboxylic acid]"
14,1 to 5,"COc1ccc(F)c(-c2cnc(-n3cc(C(=O)O)c(N)n3)cc2C#N)c1 [Compound 107, 3-amino-1-[4-cyano-5-(2-fluoro-5-methoxyphenyl)pyridine-2-yl]-1H-pyrazole-4-carboxylic acid]"
